Publication PMC9800617, “Pharmacokinetics/pharmacodynamics of polymyxin B in patients with bloodstream infection caused by carbapenem-resistant Klebsiella pneumoniae” (Frontiers in Pharmacology, 2022)
Values joined by “and” are separate entries in the source; they are usually repeats but may differ in a detail not shown here. Equal entries are not always repeated. Bridge positions count the residues as written; N and C are the ends. Square brackets hold non-standard residues; d marks the D form. Peptide text beside a SMILES is read from it. * marks the point of attachment. X1 = CC[C@H](C)CCCCC(=O)*; Dab = NCC[C@H](N)C(=O)O

Columns and labels:
[1] = tested on: K. pneumoniae; conditions: ref Landersdorfer et al., 2018, cited from earlier work
Protocol: Monte Carlo simulations were conducted for the probability of target attainment (PTA) analysis to guide the selection of optimal dosage regimens. Different dosage regimens were simulated by the PPK model and AUCss,24h were calculated. […] The maximal reductions in colony f ... || FIGURE 4 Probability of target attainment for different dosage regimens of polymyxin B against common carbapenem-resistant organisms according to PK/PD simulations. (A) Loading dose for three bacterial species. […] In preclinical studies, the fAUC/MIC required for various magnitudes of bacterial killing varied among bacterial strains and infection sites. […] Against P. aeruginosa and A. b ... || (+ 2 further places)

[2] = 24 critically ill patients, 0.45–3.38 mg/kg/day, no loading dose, ref Sandri et al., 2013, cited from earlier work
Protocol: A good understanding of the PK of polymyxin B is essential for optimizing its clinical use. A previous population PK study examining the use of polymyxin B (0.45–3.38 mg/kg/day) in 24 critically ill patients reported an AUCss,24h of 66.9 ± 21.6 mg h/L (range, 16.4–117 mg h/L) and Css,avg of 2.79 ± 0.90 mg/L; no loading dose was administered ([Sandri et al., 2013]).

[3] = tested on: carbapenem-resistant K. pneumoniae (CRKP) bloodstream infections; experiment: Microbiological and clinical efficacy in CRKP bloodstream infection; assay type: in vivo, human; conditions: for Microbiological efficacy: blood culture; for Clinical efficacy: evaluated when the subject withdrew or completed the study; for 28-day survival: 14 days of treatment
Protocol: This prospective, multi-centered, single-armed and open-label clinical trial was conducted in accordance with Good Clinical Practice, International Conference on Harmonization guidelines, and in compliance with the World Medical Association Declaration of Helsinki and was approved by the Ethics Committee of Sir Run Run Shaw Hospital, College of Medicine, Zhejiang University, Hangzhou, China, and other participating centers ([Williams, 2008]). Written informed consent was obtained from each patient or his/her representative before enrollment. Patients with CRKP-positive blood cultures and with an estimated glomerular filtration rate (eGFR) of 60–120 ml/min were included. The inclusion and exclusion criteria are shown in Supplementary Table S1. This clinical trial was registered at http://www.chictr.org.cn (registration number: ChiCTR 1900021137) and was conducted across 2019 and 2020.
(§1) The definition of different population groups for safety and efficacy analysis is shown in Supplementary Table S2. Briefly, safety was evaluated based on adverse events (AEs) in patients who received at least one polymyxin B dose. Adverse events were recorded based on patient self-reporting as well as abnormal laboratory test results including serum chemistry and routine blood and urinary testing. Acute kidney injury (AKI) was graded according to the RIFLE criteria ([Bellomo et al., 2004]). The primary endpoint was culture-confirmed bacterial eradication of CRKP from the blood evaluated by blood cultures taken every 3 days following the first dose of polymyxin B administration. Secondary endpoints were clinical outcome (clinical cure or improvement, Supplementary Table S3) evaluated in patients who received at least 3 days of polymyxin B treatment, and 28-day all-cause mortality evaluated in patients who completed 14 days of polymyxin B treatment.

[4] = cited from earlier work
Source text: Nephrotoxicity following intravenous administration of polymyxin B may occur in up to ∼30% of patients and constitutes the major dose-limiting factor with polymyxin therapy ([Ouderkirk et al., 2003]; [Sobieszczyk et al., 2004]; [Phe et al., 2014]; [Oliota et al., 2019]). The inability to substantially increase the daily dose of polymyxins may lead to suboptimal dosing which compromises efficacy and increases the likelihood of resistance emerging ([Zavascki et al., 2007]; [Rigatto et al., 2014]). In the present study, no pathological factors affecting renal function were present in any of the p ...

[5] = Safety (adverse events, renal function) in BSI patients; assay type: in vivo, human
Protocol: as §1

[6] = cited from earlier work; remark: listed apart in the source
Protocol: Our study is the first to specifically examine patients with BSI using the recommended dosage regimen of polymyxin B (2.5–3.0 mg/kg/d) ([Tsuji et al., 2019]). Previous studies utilizing PPK models to examine polymyxin B PK have included primarily critically ill patients with various medical conditions or patients with cystic fibrosis, and have employed a wide range of doses (0.45–3.38 mg/kg/day) ([Sandri et al., 2013]; [Avedissian et al., 2018]; [Kubin et al., 2018]; [Manchandani et al., 2018]; [Miglis et al., 2018]; [Yu et al., 2021]).

[7] = nine patients, 2.5 mg/kg loading, 1.25 mg/kg/12 h iv
[8] = healthy subjects, ref Liu et al., 2021

CC[C@H](C)CCCCC(=O)N[C@@H](CCN)C(=O)N[C@H](C(=O)N[C@@H](CCN)C(=O)N[C@H]1CCNC(=O)[C@H]([C@@H](C)O)NC(=O)[C@H](CCN)NC(=O)[C@H](CCN)NC(=O)[C@H](CC(C)C)NC(=O)[C@@H](Cc2ccccc2)NC(=O)[C@H](CCN)NC1=O)[C@@H](C)O [polymyxin B] (X1-[Dab]T[Dab][Dab][Dab][dF]L[Dab][Dab]T; lactam 4-C)
fAUC24h/MIC target ([1]; 1-log10 reduction against K. pneumoniae, murine thigh infection): 17.4 | target values of fAUC/MIC ([1]; 1 log10 kill, mouse thigh infection, three strains of K. pneumoniae): 3.7–28.0 | 2 log10 kill ([1]; mouse thigh infection, three strains of K. pneumoniae): 2 log10 kill could not be achieved with even the highest tolerated dose | AUCss,24h ([2]; mean ± SD, SD): 66900 ± 21600 ng·h/mL | Css,avg ([2]; mean ± SD, SD): 2790 ± 900 ng/mL | AUCss,24h, range [2]: 16400 to 117000 ng·h/mL | patients alive 28 days after the commencement of therapy ([3]; 4 patients who completed the 14-day treatment protocol): all 4 | clinical cure or improvement ([3]; 6/8 patients): 75% | time to negative blood cultures after commencing therapy ([3]; all 8 patients evaluated for microbiological efficacy): ≤ 3 days | Microbiological efficacy ([3]; patient 1): Eradication | Clinical efficacy ([3]; patient 1): Not improved | Microbiological efficacy ([3]; patient 2): Eradication | Clinical efficacy ([3]; patient 2): Improved | 28-day survival ([3]; patient 3): Yes | Microbiological efficacy ([3]; patient 3): Eradication | Clinical efficacy ([3]; patient 3): Cure | Microbiological efficacy ([3]; patient 5): Eradication | Clinical efficacy ([3]; patient 5): Improved | 28-day survival ([3]; patient 6): Yes | Microbiological efficacy ([3]; patient 6): Eradication | Clinical efficacy ([3]; patient 6): Cure | 28-day survival ([3]; patient 7): Yes | Microbiological efficacy ([3]; patient 7): Eradication | Clinical efficacy ([3]; patient 7): Cure | Microbiological efficacy ([3]; patient 8): Eradication | Clinical efficacy ([3]; patient 8): Improved | 28-day survival ([3]; patient 9): Yes | Microbiological efficacy ([3]; patient 9): Eradication | Clinical efficacy ([3]; patient 9): Failure | clinical cure or improvement ([3]; patients evaluated for efficacy (n = 8)): 6 of 8 | incidence of nephrotoxicity reported previously ([4]; ref Oliota et al., 2019): 29.8% | incidence of polymyxin B-associated nephrotoxicity (RIFLE criteria) ([4]; ref Phe et al., 2014): 23.1% | patients with nephrotoxicity following intravenous administration ([4]; up to, ref Ouderkirk et al., 2003, Sobieszczyk et al., 2004, Phe et al., 2014, Oliota et al., 2019): ~30% | incidence of polymyxin B-induced AKI (RIFLE criteria) ([5]; 5/9 patients): 55.6% | patients with at least one of neurotoxicity, nephrotoxicity, hyperpigmentation ([5]; 8/9 patients): 88.9% | abdominal pain ([5]; during polymyxin B treatment, all patients): no abdominal pain was reported by any patient | Hyperpigmentation, patients [5, 7]: 1/9 | Nephrotoxicity, patients [5, 7]: 5/9 | Neurotoxicity, patients [5, 7]: 5/9 | Study completion per protocol (Withdrawal reasons) ([5]; patient 1, treatment duration 6 days): Withdraw (AKI) | Study completion per protocol (Withdrawal reasons) ([5]; patient 2, treatment duration 6 days): Withdraw (AKI) | Study completion per protocol (Withdrawal reasons) ([5]; patient 3, treatment duration 14 days): Yes | Study completion per protocol (Withdrawal reasons) ([5]; patient 4, treatment duration 1 day (loading dose only)): Withdraw (pruritus and numbness on face and head, ataxia) | Study completion per protocol (Withdrawal reasons) ([5]; patient 5, treatment duration 5 days): Withdraw (AKI, pruritus and numbness on face and head, ataxia) | Study completion per protocol (Withdrawal reasons) ([5]; patient 6, treatment duration 14 days): Yes | Study completion per protocol (Withdrawal reasons) ([5]; patient 7, treatment duration 14 days): Yes | Study completion per protocol (Withdrawal reasons) ([5]; patient 8, treatment duration 4 days): Withdraw (AKI, pruritus and numbness on face and head, ataxia) | Study completion per protocol (Withdrawal reasons) ([5]; patient 9, treatment duration 14 days): Yes | neurotoxicity among conscious patients ([5]; seven conscious patients (two sedated)): Five of seven and 5 of 7 | clearance [6, 8]: 0.433 ± 0.067 mL/min/kg | half-life [6, 8]: 5.55 ± 0.942 h | volume of distribution [6, 8]: 0.204 ± 0.026 L/kg | dose excreted unchanged in the urine ([6]; ref Zavascki et al., 2008): ≤ 4%
